Laboratory results taken from ChEMBL document CHEMBL1201861, “Genomics of Drug Sensitity in Cancer screening data, Wellcome Trust Sanger Institute”.
pIC50: −log10 of the molar value. Values joined by “and” are separate entries in the source; they are usually repeats but may differ in a detail not shown here. Identical values can stand only once. Where a SMILES comes first, the peptide text is derived from it. The star is where a group is joined. Cbz = O=C(OCc1ccccc1)*

How the values were obtained:
NCI-H2081 = test: cells; format: functional, cell-based, Homo sapiens;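 note: growth inhibition of human NCI-H2081 cells, read out with a cell viability assay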
Description: SANGER: Inhibition of human NCI-H2081 cell growth in a cell viability assay.

EW-12 = test: SANGER: Inhibition of human EW-12 cell growth in a cell viability assay.; format: functional, cell-based
CMK = test: cells; format: functional, cell-based, Homo sapiens;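 note: growth inhibition of CMK cells, read out as cell viability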
Description: SANGER: Inhibition of human CMK cell growth in a cell viability assay.

NB7 = test: cells; format: functional, cell-based, Homo sapiens;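 note: growth inhibition of NB7 cells, read out with a cell viability assay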
Description: SANGER: Inhibition of human NB7 cell growth in a cell viability assay.

NCI-H128 = test: SANGER: Inhibition of human NCI-H128 cell growth in a cell viability assay.; format: functional, cell-based
BL-41 = test: cells; format: functional, cell-based; conditions: Homo sapiens;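 note: growth inhibition of human BL-41 cells, read out with a cell viability assay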
Description: SANGER: Inhibition of human BL-41 cell growth in a cell viability assay.

CA46 = test: cells; format: functional, cell-based, Homo sapiens;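 note: growth inhibition of human CA46 cells, read out by a cell viability assay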
Description: SANGER: Inhibition of human CA46 cell growth in a cell viability assay.

NCI-H322M = test: cells; format: functional, cell-based, Homo sapiens;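 note: cell viability assay measuring inhibition of growth of human NCI-H322M cells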
Description: SANGER: Inhibition of human NCI-H322M cell growth in a cell viability assay.

EW-22 = test: cells; format: functional, cell-based; conditions: Homo sapiens;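 note: growth inhibition of the EW-22 cell line, measured with a cell viability readout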
Description: SANGER: Inhibition of human EW-22 cell growth in a cell viability assay.

CAL-148 = test: cells; format: functional, cell-based, Homo sapiens
Description: SANGER: Inhibition of human CAL-148 cell growth in a cell viability assay.

NCI-H2141 = test: cells; format: functional, cell-based, Homo sapiens;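 note: growth inhibition of human NCI-H2141 cells, read out with a cell viability assay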
Description: SANGER: Inhibition of human NCI-H2141 cell growth in a cell viability assay.

OAW-42 = test: cells; format: functional, cell-based; conditions: Homo sapiens;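 note: growth inhibition of OAW-42 cells, read out with a cell viability assay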
Description: SANGER: Inhibition of human OAW-42 cell growth in a cell viability assay.

P12-Ichikawa = test: cells; format: functional, cell-based; conditions: Homo sapiens
MCF7 = test: cells; format: functional, cell-based; conditions: Homo sapiens;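 note: growth inhibition of human MCF7 cells, read out with a cell viability assay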
Description: SANGER: Inhibition of human MCF7 cell growth in a cell viability assay.

DK-MG = test: cells; format: functional, cell-based; conditions: Homo sapiens;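 note: growth inhibition of DK-MG cells, read out with a cell viability assay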
Description: SANGER: Inhibition of human DK-MG cell growth in a cell viability assay.

BALL-1 = test: cells; format: functional, cell-based; conditions: Homo sapiens;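 note: growth inhibition of BALL-1 cells, read out with a cell viability assay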
Description: SANGER: Inhibition of human BALL-1 cell growth in a cell viability assay.

HuP-T3 = test: cells; format: functional, cell-based; conditions: Homo sapiens;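 note: HuP-T3 cell growth inhibition, read out with a cell viability assay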
Description: SANGER: Inhibition of human HuP-T3 cell growth in a cell viability assay.

CAL-33 = test: cells; format: functional, cell-based; conditions: Homo sapiens;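 note: growth inhibition of CAL-33 cells, read out with a cell viability assay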
Description: SANGER: Inhibition of human CAL-33 cell growth in a cell viability assay.

NCI-H1666 = test: cells; format: functional, cell-based; conditions: Homo sapiens;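 note: growth inhibition of the cell line, read out with a cell viability assay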
Description: SANGER: Inhibition of human NCI-H1666 cell growth in a cell viability assay.

TI-73 = test: cells; format: functional, cell-based; conditions: Homo sapiens;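 note: cell viability assay measuring how much compounds suppress growth of the cultured cell line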
Description: SANGER: Inhibition of human TI-73 cell growth in a cell viability assay.

AN3-CA = test: cells; format: functional, cell-based; conditions: Homo sapiens;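 note: growth inhibition of human AN3-CA cells measured by a cell viability assay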
Description: SANGER: Inhibition of human AN3-CA cell growth in a cell viability assay.

BFTC-909 = test: cells; format: functional, cell-based; conditions: Homo sapiens
Description: SANGER: Inhibition of human BFTC-909 cell growth in a cell viability assay.

CAL-54 = test: cells; format: functional, cell-based; conditions: Homo sapiens;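 note: growth inhibition of CAL-54 cells, read out by a viability measurement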
Description: SANGER: Inhibition of human CAL-54 cell growth in a cell viability assay.

ME-180 = test: cells; format: functional, cell-based; conditions: Homo sapiens;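 note: cell viability assay measuring growth inhibition of ME-180 cells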
Description: SANGER: Inhibition of human ME-180 cell growth in a cell viability assay.

U-118-MG = test: cells; format: functional, cell-based; conditions: Homo sapiens
Description: SANGER: Inhibition of human U-118-MG cell growth in a cell viability assay.

HCC38 = test: cells; format: functional, cell-based; conditions: Homo sapiens;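 note: cell viability assay on the human HCC38 cell line, with IC50 marking the concentration that inhibits cell growth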
Description: SANGER: Inhibition of human HCC38 cell growth in a cell viability assay.

RH-18 = test: cells; format: functional, cell-based; conditions: Homo sapiens, Rh18;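 note: growth inhibition of human RH-18 cells, read out with a cell viability assay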
Description: SANGER: Inhibition of human RH-18 cell growth in a cell viability assay.

D-423MG = test: cells; format: functional, cell-based; conditions: Homo sapiens
Description: SANGER: Inhibition of human D-423MG cell growth in a cell viability assay.

YAPC = test: cells; format: functional, cell-based; conditions: Homo sapiens;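 note: growth inhibition of YAPC cells, measured with a cell viability assay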
Description: SANGER: Inhibition of human YAPC cell growth in a cell viability assay.

LCLC-97TM1 = test: cells; format: functional, cell-based; conditions: Homo sapiens;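 note: cell viability assay measuring growth inhibition of human LCLC-97TM1 cells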
Description: SANGER: Inhibition of human LCLC-97TM1 cell growth in a cell viability assay.

MDA-MB-175-VII = test: cells; format: functional, cell-based; conditions: Homo sapiens
CAKI-1 = test: cells; format: functional, cell-based; conditions: Homo sapiens;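 note: growth inhibition of CAKI-1 cells, measured by a cell viability assay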
Description: SANGER: Inhibition of human CAKI-1 cell growth in a cell viability assay.

VMRC-RCZ = test: cells; format: functional, cell-based; conditions: Homo sapiens
Description: SANGER: Inhibition of human VMRC-RCZ cell growth in a cell viability assay.

RERF-LC-MS = test: cells; format: functional, cell-based; conditions: Homo sapiens;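 note: growth inhibition of human RERF-LC-MS cells, read out by a cell viability assay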
Description: SANGER: Inhibition of human RERF-LC-MS cell growth in a cell viability assay.

SJRH30 = test: cells; format: functional, cell-based; conditions: Homo sapiens;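 note: growth inhibition of human SJRH30 cells, read out with a cell viability assay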
Description: SANGER: Inhibition of human SJRH30 cell growth in a cell viability assay.

D-566MG = test: cells; format: functional, cell-based; conditions: Homo sapiens
NCI-H1563 = test: cells; format: functional, cell-based; conditions: Homo sapiens;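 note: growth inhibition of human NCI-H1563 cells, read out with a cell viability assay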
Description: SANGER: Inhibition of human NCI-H1563 cell growth in a cell viability assay.

SKG-IIIa = test: cells; format: functional, cell-based; conditions: Homo sapiens;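 note: cell growth inhibition, read out with a cell viability assay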
Description: SANGER: Inhibition of human SKG-IIIa cell growth in a cell viability assay.

BT-20 = test: cells; format: functional, cell-based; conditions: Homo sapiens;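 note: cell viability assay measuring suppression of growth in human BT-20 cells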
Description: SANGER: Inhibition of human BT-20 cell growth in a cell viability assay.

H-EMC-SS = test: cells; format: functional, cell-based; conditions: Homo sapiens
Description: SANGER: Inhibition of human H-EMC-SS cell growth in a cell viability assay.

TGBC11TKB = test: cells; format: functional, cell-based; conditions: Homo sapiens;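 note: growth inhibition of human TGBC11TKB cells, measured by a cell viability assay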
Description: SANGER: Inhibition of human TGBC11TKB cell growth in a cell viability assay.

EPLC-272H = test: cells; format: functional, cell-based; conditions: Homo sapiens
Description: SANGER: Inhibition of human EPLC-272H cell growth in a cell viability assay.

647-V = test: cells; format: functional, cell-based; conditions: Homo sapiens;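 note: growth inhibition of 647-V cells, read out with a cell viability assay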
Description: SANGER: Inhibition of human 647-V cell growth in a cell viability assay.

EGI-1 = test: cells; format: functional, cell-based; conditions: Homo sapiens;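 note: cell viability readout used to gauge growth inhibition of EGI-1 cells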
Description: SANGER: Inhibition of human EGI-1 cell growth in a cell viability assay.

A-427 = test: cells; format: functional, cell-based; conditions: Homo sapiens;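 note: growth inhibition of human A-427 cells, read out by a cell viability assay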
Description: SANGER: Inhibition of human A427 cell growth in a cell viability assay.

HCC1395 = test: cells; format: functional, cell-based; conditions: Homo sapiens;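 note: growth inhibition of HCC1395 cells, read out by a cell viability assay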
Description: SANGER: Inhibition of human HCC1395 cell growth in a cell viability assay.

IGROV-1 = test: cells; format: functional, cell-based; conditions: Homo sapiens;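 note: reduction of IGROV-1 cell growth, read out with a viability assay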
Description: SANGER: Inhibition of human IGROV-1 cell growth in a cell viability assay.

8505C = test: cells; format: functional, cell-based; conditions: Homo sapiens
Description: SANGER: Inhibition of human 8505C cell growth in a cell viability assay.

MKN-7 = test: cells; format: functional, cell-based; conditions: Homo sapiens;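 note: growth inhibition of MKN-7 cells, read out with a cell viability assay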
Description: SANGER: Inhibition of human MKN7 cell growth in a cell viability assay.

MDA-MB-453 = test: cells; format: functional, cell-based; conditions: Homo sapiens
Description: SANGER: Inhibition of human MDA-MB-453 cell growth in a cell viability assay.

MEL-JUSO = test: cells; format: functional, cell-based; conditions: Homo sapiens;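 note: growth inhibition of human MEL-JUSO cells, read out with a cell viability assay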
Description: SANGER: Inhibition of human MEL-JUSO cell growth in a cell viability assay.

Measured: pIC50

C[C@@H](Oc1cc(-c2cnn(C3CCNCC3)c2)cnc1N)c1c(Cl)ccc(F)c1Cl [CRIZOTINIB]
5.71: CMK; Homo sapiens, CMK
< 5.70: NCI-H2081; Homo sapiens, NCI-H2081 | EW-12; Homo sapiens, EW-12 | NB7; Homo sapiens, NB7 | NCI-H128; Homo sapiens, NCI-H128 | BL-41 | CA46; Homo sapiens, CA46 | NCI-H322M; Homo sapiens, NCI-H322M | EW-22 | CAL-148; Homo sapiens, CAL-148 | NCI-H2141; Homo sapiens, NCI-H2141

Nc1ccccc1NC(=O)c1ccc(CNC(=O)OCc2cccnc2)cc1 [ENTINOSTAT]
< 5.30: NCI-H2081; Homo sapiens, NCI-H2081 | EW-12; Homo sapiens, EW-12 | NB7; Homo sapiens, NB7 | NCI-H128; Homo sapiens, NCI-H128 | CA46; Homo sapiens, CA46 | NCI-H322M; Homo sapiens, NCI-H322M | EW-22
6.45: CMK; Homo sapiens, CMK
5.50: NCI-H2141; Homo sapiens, NCI-H2141
5.88: CAL-148; Homo sapiens, CAL-148
6.24: BL-41

Cc1ccc(NC(=O)c2ccc(CN3CCN(C)CC3)cc2)cc1Nc1nccc(-c2cccnc2)n1 [IMATINIB]
< 5.70: NCI-H2081; Homo sapiens, NCI-H2081 | EW-12; Homo sapiens, EW-12 | CMK; Homo sapiens, CMK | NB7; Homo sapiens, NB7 | NCI-H128; Homo sapiens, NCI-H128 | BL-41 | CA46; Homo sapiens, CA46 | NCI-H322M; Homo sapiens, NCI-H322M | EW-22 | CAL-148; Homo sapiens, CAL-148 | NCI-H2141; Homo sapiens, NCI-H2141

CC(C)C[C@@H](C=O)NC(=O)[C@H](CC(C)C)NC(=O)[C@H](CC(C)C)NC(=O)OCc1ccccc1 [MG-132] (Cbz-Leu-Leu-Leu-aldehyde)
6.51 and < 6.00: CMK; cmk
< 6.00: NCI-H2081; nci-h2081 | EW-12; ew-12 | NB7; nb7 | NCI-H128; nci-h128 | CA46; Homo sapiens, CA46 | CA46; ca46 | NCI-H322M; nci-h322m | EW-22 | CAL-148; cal-148 | NCI-H2141; nci-h2141

CS(=O)(=O)N1CCN(Cc2cc3nc(-c4cccc5[nH]ncc45)nc(N4CCOCC4)c3s2)CC1 [PICTILISIB]
6.45: MDA-MB-175-VII
< 5.40: P12-Ichikawa | DK-MG | BALL-1 | HuP-T3 | CAL-33 | TI-73 | U-118-MG | HCC38 | RH-18 | YAPC | CAKI-1 | VMRC-RCZ | RERF-LC-MS | SJRH30 | H-EMC-SS | TGBC11TKB | 647-V | A-427 | HCC1395 | 8505C | MDA-MB-453
5.65: EW-22
5.71: ME-180
5.57: LCLC-97TM1 | MKN-7
5.77: BT-20
6.47: AN3-CA
6.41: NB7; Homo sapiens, NB7
5.58: SKG-IIIa
5.96: D-423MG
5.79: D-566MG
5.73: EGI-1
6.04: NCI-H1563
5.84: BFTC-909
5.60: NCI-H1666
5.97: CAL-54
6.16: EPLC-272H
6.06: OAW-42
6.20: IGROV-1
6.05: MCF7

COc1cc(N2CCC(N3CCN(C)CC3)CC2)ccc1Nc1ncc(Cl)c(Nc2ccccc2S(=O)(=O)C(C)C)n1 [TAE-684]
< 5.70: NCI-H2081; Homo sapiens, NCI-H2081 | EW-12; Homo sapiens, EW-12 | NB7; Homo sapiens, NB7 | NCI-H128; Homo sapiens, NCI-H128 | CA46; Homo sapiens, CA46 | NCI-H322M; Homo sapiens, NCI-H322M | EW-22 | CAL-148; Homo sapiens, CAL-148 | NCI-H2141; Homo sapiens, NCI-H2141
5.75: BL-41
6.59: CMK; Homo sapiens, CMK

CC1=C(/C=C/C(C)=C/C=C/C(C)=C/C(=O)O)C(C)(C)CCC1 [TRETINOIN]
< 5.00: OAW-42 | MEL-JUSO | P12-Ichikawa | MCF7 | DK-MG | BALL-1 | HuP-T3 | CAL-33 | NCI-H1666 | TI-73 | NB7; Homo sapiens, NB7 | AN3-CA | BFTC-909 | CAL-54 | ME-180 | U-118-MG | HCC38 | RH-18 | EW-22 | D-423MG | YAPC | LCLC-97TM1 | MDA-MB-175-VII | CAKI-1 | VMRC-RCZ | RERF-LC-MS | SJRH30 | D-566MG | NCI-H1563 | SKG-IIIa | BT-20 | H-EMC-SS | TGBC11TKB | EPLC-272H | 647-V | EGI-1 | A-427 | HCC1395 | IGROV-1 | 8505C | MKN-7 | MDA-MB-453
